The text below walks through data of patent US20240254135A1, “POLYPHENOL COMPOUNDS” (Epirium Bio Inc., priority 2022, published 2024).

The assay concerns the target T1, mitochondrial ATP synthase (Mus musculus, UniProt P56480+Q03265).
T1 construct: from tissue; host or cells: mouse heart, isolated mitochondria (fresh or frozen)
As to the kind of experiment: ATP hydrolysis (proton release/ECAR, Seahorse XF96) in fresh heart mitochondria. It counts as biochemical. As to conditions: for changes in ATP hydrolysis: fresh heart mitochondria (FIG. 1, FIG. 2). An excerpt:
To assess whether the fraction of synthetic and reverse hydrolytic activities of mitochondrial ATP synthase can be measured in the same preparation, a protocol was developed to monitor changes in oxygen consumption and proton release in response to changes in mitochondrial ATP synthase activity. The proton released and the concomitant changes in the pH can be monitored using the ECAR (extracellular acidification) channel in the Agilent Seahorse XF analyzer using isolated mitochondria, to ensure that the changes in pH cannot be attributed to glycolysis or other contributors to ECAR.
Mice were anesthetized with isoflurane followed by a cervical dislocation, and the heart was immediately removed and placed in ice cold relaxation buffer (5 mM sodium pyrophosphate, 100 mM KCl, 5 mM EGTA, 5 mM HEPES; pH 7.4). The heart was squeezed with tweezers to remove blood, minced with scissors, and then placed in a glass-glass Dounce homogenizer with 3 mL of HES homogenization buffer (250 mM sucrose, 5 mM HEPES, 1 mM EDTA; pH to 7.2, adjusted with KOH). The heart tissue was homogenized first with the loose pestle and followed by the tight pestle. The homogenized tissue was placed in a pre-chilled 15 ml conical tube and centrifuged at 900×g (4° C.) for 10 minutes (min). The supernatant was removed, placed in a new tube and centrifuged again at 900×g for 10 min. The supernatant was then transferred to 2 mL microcentrifuge tubes and centrifuged at 10,000×g (4° C.) for 10 min. The mitochondrial pellets were re-suspended in ice cold HES buffer and mitochondrial protein was measured with a BCA assay (Pierce). The concentrated mitochondrial pellet was stored on ice.
Heart mitochondria (0.75-1.5 μg) were loaded into a Seahorse XF96 microplate in 20 μL of MAS (70 mM Sucrose, 220 mM Mannitol, 5 mM KH2PO4, 5 mM MgCl2, 1 mM EGTA, 2 mM HEPES; pH 7.2) plus 1% free fatty acid BSA containing substrates. The loaded plate was centrifuged at 2,000×g for 5 min at 4° C. (no brake) and an additional 130 μL of MAS was added to each well. When assessing compounds effect on respirometry, the compounds were added at this point at the indicated concentration in MAS buffer. To avoid disrupting mitochondrial adherence to the bottom of the plate, MAS was added using a multichannel pipette pointed at a 45° angle to the top of the well-chamber, as instructed by the manufacturer. Substrate concentrations in the well when assay was starting in state 4 were as follow: (i) 5 mM pyruvate+5 mM malate or ii) 5 mM succinate+2 μM rotenone. Substrate concentrations in the well when assay was starting in state 3 were as follow: (i) 5 mM pyruvate+5 mM malate+4 mM ADP or ii) 5 mM succinate+2 μM rotenone+4 mM ADP. Injections were performed as indicated in the figure descriptions at the following final concentration in the well: oligomycin (3.5 μM), FCCP (4 μM), Antimycin A (2 μM). Compounds were added at the indicated concentration.
ATP hydrolysis capacity or state 4 acidification was measured using Seahorse XF96 as described in Divakaruni et al. (2018) Anal Biochem 552:60-65 and Acin-Perez et al. (2021) Life 11(9):949, in MAS (70 mM Sucrose, 220 mM Mannitol, 5 mM KH2PO4, 5 mM MgCl2, 1 mM EGTA, 2 mM HEPES; pH 7.2). Plates were loaded with 0.75-1.5 μg of mouse heart mitochondria, or 25 μg of cell lysate. Cell lysates were prepared by subjecting the samples to 4 cycles of free thaw (liquid nitrogen—37° C. water bath) before measuring protein concentration. When assessing compounds effect on respirometry, the compounds were added in MAS after sample centrifugation. Initial respiration of the samples was sustained by the addition of 5 mM succinate+2 μM rotenone in the MAS after centrifugation. Injections were performed at the following final concentration in the well: Antimycin A (2 μM), oligomycin (5 μM), FCCP (1 μM), ATP (20 mM). To assess maximal ATP concentration, ATP was injected consecutively. […]

Regarding `COc1cc(C2Oc3ccccc3CC2O)ccc1F` (single isomer, unassigned) [Compound 75b, 2-(4-fluoro-3-methoxyphenyl)chroman-3-ol], the “changes in ATP hydrolysis” value was “very mild changes”.

For `Oc1cc(O)c2c(c1)O[C@H](c1ccc(O)c(O)c1)[C@H](O)C2` [Epicatechin, (+)Epicatechin, reference compound], under “mitochondria preparation and substrate not given”, the decrease in hydrolysis is on record as 10-25%.

As for `Oc1ccc2c(c1)OC(c1ccc(O)c(C(F)(F)F)c1)C(O)C2` (single isomer, unassigned) [Compound 77b, 2-(4-hydroxy-3-(trifluoromethyl)phenyl)chromane-3,7-diol], the “changes in ATP hydrolysis” value is recorded as “very mild changes”. In addition, the change in hydrolysis result (fresh mitochondria, Complex I) is listed as “no clear change”. For the same compound, the decrease in hydrolysis (fresh mitochondria, Complex II) is given as 20%.
